Data reported in US10842149B2, “Water conditioning adjuvant compositions and related methods for reducing herbicide volatility” (BOARD OF TRUSTEES OF MICHIGAN STATE UNIVERSITY, priority 2017, dated 2020).
Read-outs that look alike come from different tables or passages of the source.

Assays:
[1] = system: VELVETLEAF; experiment: Effect of DTPA on glyphosate efficacy on velvetleaf (% control); assay type: in vivo; settings: Table 3, combined experiments 1, 2 and 3, 10 gpa, 25 psi, glyphosate 0.25 lb a.e./A
[2] = system: GIANT FOXTAIL; experiment: Effect of DTPA, EDTA and other adjuvants on glyphosate efficacy on giant foxtail (% control); assay type: in vivo; settings: combined experiments 1 and 2, 10 gpa, 25 psi
[3] = approximate values given by way of illustration; cited from earlier work
[4] = system: TOMATO; settings: for % INJURY 7 DAT: rated 7 DAT; for % INJURY 10 DAT: rated 10 DAT; for % INJURY 14 DAT: rated 14 DAT; for % INJURY 21 DAT: rated 21 DAT; for % INJURY 28 DAT: rated 28 DAT
From the text: Reduction in herbicide volatility can be characterized using the procedure generally set forth in Penner U.S. Publication No. 2016/0255832, which includes a bioassay system for evaluating herbicide volatilization from plant substrates (e.g., using wheat and soybean plants or equivalent in a plant growth chamber with a selected adjuvant/herbicide composition including a volatile growth regulator herbicide and an aminopolycarboxylate salt). A wide range of soil, plant, environmental, and herbicide factors (e.g., vapor pressure and water solubility of herbicide, surface characteristics) can affect herbicide volatility from soils and plants. Comparison of the volatilization would be most readily visualized by appropriate bioassay systems. In the bioassay system, a herbicide composition including a volatile growth regulator herbicide (e.g., 2,4-D, dicamba, or otherwise) and optionally one or more adjuvants (e.g., including an aminopolycarboxylate salt or not) is applied foliarly to a target plant generally resistant to the herbicide (e.g., wheat plants, such as amber red wheat) or is applied to a target soil area without a target plant. Twenty minutes later, soybean plants (e.g., PIONEER 92M92 soybean plants) or other plants sensitive to the volatile growth regulator herbicide are placed in the middle of the sprayed target plants and/or soil.
The following examples illustrate the disclosed compositions and methods, but are not intended to limit the scope of any claims thereto. […] In the examples of Tables 1-3, target weeds were initially treated with glyphosate and any additional adjuvants as indicated in the tables. […] In the examples of Table 4, target soil was initially treated with dicamba and any additional adjuvants as indicated in the table, and then tomato plants were inserted into a ring of the treated soil for 24 hours. After 24 hours of sitting in the treated soil (i.e., during which time any volatilized herbicide from the soil could contact the tomato plants), the tomato plants were removed from the treated soil and grown on a laboratory bench.

[5] = pH of the treatment solutions (Table 3); assay type: physicochemical; settings: pH of treatment solution, DTPA treatments adjusted with KOH (5N)
[6] = Table 1, glyphosate 0.20 (Run 1) / 0.25 (Run 2) lb a.e./A, pH adjusted to 5.5 with KOH
[7] = Table 1, glyphosate 0.20 / 0.25 lb a.e./A
[8] = Table 2, glyphosate 0.275 (exp 1) / 0.20 (exp 2) lb a.e./A
[9] = Table 2, glyphosate 0.275 / 0.20 lb a.e./A
[10] = tomato in treated soil ring: duration, dicamba 0.50 lb a.e./A
[11] = tomato inserted 1 DAT (in 1st DAT out 2nd DAT), 24 hours
[12] = tomato inserted 2 DAT (in 2nd DAT out 3rd DAT), 24 hours
[13] = tomato inserted 3 DAT (in 3rd DAT out 4th DAT), 24 hours
[14] = tomato inserted 4 DAT (in 4th DAT out 5th DAT), 24 hours
[15] = tomato inserted 7 DAT (in 7th DAT out 8th DAT), 24 hours

O=C(O)CN(CCN(CC(=O)O)CC(=O)O)CCN(CC(=O)O)CC(=O)O [1.0% w/v DTPA, Diethylenetriaminepentaacetic acid]
% CONTROL 7 DAT [1]: 0% | % CONTROL 10 DAT [1]: 0% | % CONTROL 14 DAT [1]: 5% | % CONTROL 21 DAT [1]: 0% | % CONTROL 7 DAT [2, 6]: 1% | % CONTROL 10 DAT [2, 7]: 5% | % CONTROL 14 DAT [2, 7]: 6% | % CONTROL 21 DAT [2, 7]: 1% | % CONTROL 7 DAT [2, 8]: 0% | % CONTROL 10 DAT [2, 9]: 0% | % CONTROL 14 DAT [2, 9]: 0% | % CONTROL 21 DAT [2, 9]: 3%

O=C(O)CN(CCN(CC(=O)O)CC(=O)O)CC(=O)O [1.0% w/v EDTA, Ethylenediaminetetraacetic acid]
% CONTROL 7 DAT [2, 8]: 0% | % CONTROL 10 DAT [2, 9]: 0% | % CONTROL 14 DAT [2, 9]: 0% | % CONTROL 21 DAT [2, 9]: 3%

O=C(O)CN(CCN(CC(=O)O)CC(=O)O)CC(=O)O [2 0% w/v EDTA, Ethylenediaminetetraacetic acid]
% CONTROL 7 DAT [2, 8]: 0% | % CONTROL 10 DAT [2, 9]: 0% | % CONTROL 14 DAT [2, 9]: 0% | % CONTROL 21 DAT [2, 9]: 0%

CCCCC(CC)COC(=O)COc1ccc(Cl)cc1Cl (centres unmarked) [2,4-D 2-ethylhexyl ester]
vapor pressure [3]: ~4.8×10^−4 Pa

CCCCOCCOC(=O)COc1ccc(Cl)cc1Cl [2,4-D butoxyethyl ester]
vapor pressure [3]: ~3.2×10^−4 Pa

CNC.O=C(O)COc1ccc(Cl)cc1Cl [2,4-D dimethylamine salt]
vapor pressure [3]: ~1.3×10^−5 Pa

CC(C)OC(=O)COc1ccc(Cl)cc1Cl [2,4-D isopropyl ester]
vapor pressure [3]: ~1.9×10^1 Pa

O=C(O)CN(CCN(CC(=O)O)CC(=O)O)CCN(CC(=O)O)CC(=O)O [2.0% w/v DTPA, Diethylenetriaminepentaacetic acid]
% CONTROL 7 DAT [2, 8]: 0% | % CONTROL 10 DAT [2, 9]: 3% | % CONTROL 14 DAT [2, 9]: 0% | % CONTROL 21 DAT [2, 9]: 3%

COc1c(Cl)ccc(Cl)c1C(=O)O [DICAMBA DGA, 3,6-dichloro-2-methoxybenzoic acid]
% INJURY 7 DAT ([4]; tomato in treated soil ring: duration, dicamba 0.50 lb a.e./A on bare field soil kept wet, 20 gpa, 25 psi): 25% | % INJURY 10 DAT [4, 10]: 27% | % INJURY 14 DAT [4, 10]: 30% | % INJURY 21 DAT [4, 10]: 27% | % INJURY 28 DAT [4, 10]: 27% | % INJURY 7 DAT ([4]; tomato inserted 1 DAT (in 1st DAT out 2nd DAT), 24 hours, dicamba 0.50 lb a.e./A): 33% | % INJURY 10 DAT [4, 11]: 37% | % INJURY 14 DAT [4, 11]: 35% | % INJURY 21 DAT [4, 11]: 32% | % INJURY 28 DAT [4, 11]: 25% | % INJURY 7 DAT [4, 12]: 13% | % INJURY 10 DAT [4, 12]: 23% | % INJURY 14 DAT [4, 12]: 20% | % INJURY 21 DAT [4, 12]: 15% | % INJURY 28 DAT [4, 12]: 18% | % INJURY 7 DAT [4, 13]: 20% | % INJURY 10 DAT [4, 13]: 22% | % INJURY 14 DAT [4, 13]: 2% | % INJURY 21 DAT [4, 13]: 8% | % INJURY 28 DAT [4, 13]: 7% | % INJURY 7 DAT [4, 14]: 25% | % INJURY 10 DAT [4, 14]: 27% | % INJURY 14 DAT [4, 14]: 15% | % INJURY 21 DAT [4, 14]: 25% | % INJURY 28 DAT [4, 14]: 22% | % INJURY 7 DAT [4, 15]: 17% | % INJURY 10 DAT [4, 15]: 18% | % INJURY 14 DAT [4, 15]: 20% | % INJURY 21 DAT [4, 15]: 17% | % INJURY 28 DAT [4, 15]: 7%

O=C(O)CNCP(=O)(O)O [GLYPHOSATE, N-(phosphonomethyl)glycine]
% CONTROL 7 DAT [1]: 12% | % CONTROL 10 DAT [1]: 12% | % CONTROL 14 DAT [1]: 10% | % CONTROL 21 DAT [1]: 6% | % CONTROL 7 DAT [2, 6]: 39% | % CONTROL 10 DAT [2, 7]: 37% | % CONTROL 14 DAT [2, 7]: 40% | % CONTROL 21 DAT [2, 7]: 34% | % CONTROL 7 DAT [2, 8]: 49% | % CONTROL 10 DAT [2, 9]: 48% | % CONTROL 14 DAT [2, 9]: 48% | % CONTROL 21 DAT [2, 9]: 45% | pH [5]: 4.7
